Laboratory results taken from ChEMBL document CHEMBL2424534, “Design and synthesis of non-TZD peroxisome proliferator-activated receptor (PPAR) modulator” (2013).

Legend:
[1] = molecular target: T1, Peroxisome proliferator-activated receptor gamma (Homo sapiens) (UniProt P37231); assay: Binding affinity to PPARgamma (unknown origin) at 10 uM by Polarscreen competitor assay relative to rosiglitazone
T1 sequence (whole entry): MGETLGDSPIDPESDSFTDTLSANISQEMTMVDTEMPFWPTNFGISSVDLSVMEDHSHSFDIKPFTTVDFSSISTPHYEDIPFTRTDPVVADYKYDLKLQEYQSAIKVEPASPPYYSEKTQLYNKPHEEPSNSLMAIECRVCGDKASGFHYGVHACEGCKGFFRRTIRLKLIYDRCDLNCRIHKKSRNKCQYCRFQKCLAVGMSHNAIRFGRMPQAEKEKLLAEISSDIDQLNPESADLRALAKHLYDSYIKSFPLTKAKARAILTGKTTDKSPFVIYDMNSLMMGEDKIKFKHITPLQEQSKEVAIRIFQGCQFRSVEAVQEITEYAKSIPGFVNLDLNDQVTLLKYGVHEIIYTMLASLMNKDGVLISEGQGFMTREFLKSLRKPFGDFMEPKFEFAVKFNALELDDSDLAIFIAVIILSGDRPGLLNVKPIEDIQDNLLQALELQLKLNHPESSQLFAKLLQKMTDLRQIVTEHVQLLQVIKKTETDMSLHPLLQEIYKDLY

[2] = system: 3T3-L1; assay: Induction of adipogenesis in mouse 3T3L1 cells at 20 ug/ml by microscopic analysis relative to rosiglitazone; assay type: functional
[3] = system: 3T3-L1; assay: Induction of insulin-stimulated [14C]deoxy-glucose uptake in mouse 3T3L1 cells pretreated at 10 uM for 24 hrs before insulin stimulation by scintillation counting relative to vehicle-treated control; assay type: functional
[4] = molecular target: T1, Peroxisome proliferator-activated receptor gamma (Homo sapiens); assay: Agonist activity at PPARgamma (unknown origin) transfected in HEK293 cells assessed as transcriptional activity at 10 uM relative to rosiglitazone; assay type: cell-based

Row | SMILES | Imax [1] [%] | Emax [4] [%] | Emax at 20 µg/mL [2] [%] | fold change (FC) [3]
1 | O=S(=O)(Nc1cnc(OC2CCN(c3ccccc3)CC2)c(Cl)c1)c1ccc(C(F)(F)F)cc1 | 98 | 14 | 20 | 0.99
2 | O=S(=O)(Nc1cnc(OC2CCN(c3ccccc3)CC2)c(Cl)c1)c1ccc(-c2ccccn2)s1 | 76 | 13 | 15 | 0.93
3 | O=S(=O)(Nc1cnc(OC2CCN(c3ccccc3)CC2)c(Cl)c1)c1ccc(F)c(Cl)c1 | 79 | 10 | 20 | 0.98
4 | CN(CCOc1ncc(NS(=O)(=O)c2ccc(Cl)cc2Cl)cc1Cl)c1nc2ccccc2o1 | 82 | 16 | 22 | 1.12
5 | CN(CCOc1ccc(NS(=O)(=O)c2ccc(Cl)c(Cl)c2)cn1)c1nc2ccccc2o1 | 78 | 14 | 20 | 1.02
6 | COc1ccc(S(=O)(=O)Nc2cnc(OC3CCN(c4ccccc4)CC3)c(Cl)c2)c(OC)c1 | 51 | 17 | 20 | 1.44

The next lines start with results.

Row | Imax [1] [%] | Emax [4] [%] | SMILES | Emax at 20 µg/mL [2] [%] | fold change (FC) [3]
7 | 78 | 12 | O=S(=O)(Nc1cnc(OC2CCN(c3ccccc3)CC2)c(Cl)c1)c1ccc(F)cc1F | 21 | 1.12
8 | 72 | 12 | Cc1ccccc1S(=O)(=O)Nc1cnc(OC2CCN(c3ccccc3)CC2)c(Cl)c1 | 22 | 0.97
9 | 79 | 14 | O=S(=O)(Nc1cnc(OC2CCN(c3ccccc3)CC2)c(Cl)c1)c1ccc(Cl)cc1Cl | 18 | 1.26
10 | 47 | 15 | COc1ccc(S(=O)(=O)Nc2cnc(OC3CCN(c4ccccc4)CC3)c(Cl)c2)cc1 | 30 | 1.12
11 | 37 | 11 | N#Cc1ccc(S(=O)(=O)Nc2cnc(OC3CCN(c4ccccc4)CC3)c(Cl)c2)cc1 | 20 | 1.07
